Data as given in patent publication US8551999B2, “Heterocyclic compound and pharmaceutical composition thereof” (Otsuka Pharmaceutical Co., Ltd., priority 2007, dated 2013).
Where a name gives a salt, the structure may show the parent alone.

Columns and labels:
[1] = system: LI90 cells, a human hepatic stellate cell line; assay: Inhibitory effect on collagen synthesis (in vitro); format: cell-based; conditions: in the presence of recombinant human TGF-β1, 3H-proline labelled collagen in supernatant
Procedure: Inhibitory Effect on Collagen Synthesis (In Vitro)
LI90 cells, a human hepatic stellate cell line, were suspended in DMEM (Dulbecco's modified eagle medium) supplemented with 10% inactivated FBS (fetal bovine serum), seeded on a 12-well plate and cultured in a CO2 incubator (preset temperature: 37° C., preset CO2 concentration: 5%). After being cultured for 24 hours, the cells were washed with D-PBS (Dulbecco's phosphate buffered saline), placed in MEM (Eagle's minimum essential medium) supplemented with 0.1% inactivated FBS and then cultured in a CO2 incubator. After being cultured for 3 days, the cells were again washed with D-PBS, placed in MEM (Eagle's minimum essential medium) supplemented with 0.1% inactivated FBS and treated with or without a test compound in the presence of […] recombinant human TGF-β1 (transforming growth factor-β1) in a CO2 incubator for 16 hours. After the incubation, the cells were washed with D-PBS and the medium was replaced with MEM containing 0.25 mM ascorbate. A radio-labeled compound, ^3H-proline, was then added to the culture medium to radio-label the collagen proteins produced. After being cultured for 24 hours, the supernatant was collected and the collagen proteins were extracted from the supernatant as acid-soluble fractions. The amount of collagen produced was determined by measuring the radioactivity contained in the fractions. A concentration of test compound that produced 50% inhibition [IC50 value (nM)] on collagen synthesis was calculated by comparing the radioactivity count in a supernatant of test-compound-treated cells with that of untreated cells (control).

Row | IC50 [1] [nM] | melting point | Structure (SMILES)
1 | < 10 | 191.2 to 193 °C | CC(C)Oc1ccc(CN2CCN(C(=O)c3cc4ccc(Oc5ncc(N(C)S(=O)(=O)c6ccc(Cl)c(Cl)c6)cn5)cc4n3C)CC2)cc1 [Example 43, 3,4-Dichloro-N-(2-{2-[4-(4-isopropoxybenzyl)piperazine-1-carbonyl]-1-methyl-1H-indol-6-yloxy}pyrimidin-5-yl)-N-methyl-benzenesulfonamide]
2 | < 10 | 179 to 180 °C | COc1ccc(CN2CCN(C(=O)c3cc4cc(Oc5ncc(NC(=O)c6ccc(C(F)(F)F)cc6)cn5)ccc4n3C)CC2)cc1 [Example 380, N-(2-{2-[4-(4-Methoxybenzyl)piperazine-1-carbonyl]-1-methyl-1H-indol-5-yloxy}pyrimidin-5-yl)-4-trifluoromethylbenzamide]
3 | < 10 | 218.9 to 220.8 °C | Br.Cn1c(C(=O)N2CCN(Cc3cnc(-c4ccc(C(F)(F)F)cc4)s3)CC2)cc2cc(Oc3ccc(NC(=O)c4ccc(C(F)(F)F)cc4)cn3)ccc21 [Example 572, N-[6-(1-Methyl-2-{4-[2-(4-trifluoromethylphenyl)thiazol-5-yl-methyl]piperazine-1-carbonyl}-1H-indol-5-yloxy)pyridin-3-yl]-4-trifluoromethylbenzamide hydrobromide]
4 | – | 121 to 123 °C | Cn1c(C(=O)N2CCN(Cc3ccccn3)CC2)cc2cccc(Oc3ccc(NC(=O)c4ccc(C(F)(F)F)cc4)cn3)c21.O=C(O)C(=O)O.O=C(O)C(=O)O [Example 243, N-{6-[1-Methyl-2-(4-pyridin-2-ylmethylpiperazine-1-carbonyl)-1H-indol-7-yloxy]pyridin-3-yl}-4-trifluoromethylbenzamide dioxalate]
5 | – | 216 to 219 °C | Br.Br.Cn1c(C(=O)N2CCN(Cc3ccc(C#N)cn3)CC2)cc2cc(Oc3ccc(NC(=O)c4ccc(Cl)c(Cl)c4)cn3)ccc21 [Example 386, 3,4-Dichloro-N-(6-{2-[4-(5-cyanopyridin-2-ylmethyl)piperazine-1-carbonyl]-1-methyl-1H-indol-5-yloxy}pyridin-3-yl)benzamide dihydrobromide]

Further lines, the molecule ahead of its results:

Row | Structure (SMILES) | IC50 [1] [nM] | melting point
6 | CC(C)CN1CCN(C(=O)c2cc3cc(Oc4ccc(NC(=O)c5ccc(C(F)(F)F)cc5)cn4)ccc3n2C)CC1 [Example 547, N-{6-[2-(4-isobutylpiperazine-1-carbonyl)-1-methyl-1H-indol-5-yloxy]pyridin-3-yl}-4-trifluoromethylbenzamide] | < 10 | –
7 | COc1ccc(/C=C/CN2CCN(C(=O)c3cc4cc(Oc5ccc(NC(=O)c6ccc(C(F)(F)F)cc6)cn5)ccc4n3C)CC2)cc1.CS(=O)(=O)O [Example 357, N-[6-(2-{4-[(E)-3-(4-Methoxyphenyl)allyl]piperazine-1-carbonyl}-1-methyl-1H-indol-5-yloxy)pyridin-3-yl]-4-trifluoromethyl-benzamide methanesulfonate] | < 10 | 246 to 249 °C (dec.)
8 | Cc1ccc(S(=O)(=O)N(C)c2ccc(Oc3ccc4cc(C(=O)N5CCN(Cc6ccc(OCC(F)(F)F)cc6)CC5)[nH]c4c3)nc2)cc1 [Example 41, 4,N-Dimethyl-N-[6-(2-{4-[4-(2,2,2-trifluoroethoxy)benzyl]-piperazine-1-carbonyl}-1H-indol-6-yloxy)pyridin-3-yl]benzene-sulfonamide] | < 10 | 184 to 184.2 °C
9 | COc1ccc(CN(C)C2CCN(C(=O)c3cc4cc(Oc5ccc(NC(=O)c6ccc(C(F)(F)F)cc6)cn5)ccc4n3C)CC2)cc1 [Example 232, N-[6-(2-{4-[(4-Methoxybenzyl)methylamino]piperidine-1-carbonyl}-1-methyl-1H-indol-5-yloxy)pyridin-3-yl]-4-trifluoromethyl-benzamide oxalate] | < 10 | –
10 | Br.CCOc1cccc(CN2CCN(C(=O)c3cc4ccc(Oc5ccc(N(C)C(=O)c6ccc(C(F)(F)F)cc6)cn5)cc4n3C)CC2)c1 [Example 418, N-(6-{2-[4-(3-Ethoxybenzyl)piperazine-1-carbonyl]-1-methyl-1H-indol-6-yloxy}pyridin-3-yl)-N-methyl-4-trifluoromethylbenzamide hydrobromide] | – | 234 to 236 °C
